The text below walks through data of article PMC6268181, “Synthesis of Novel IP Agonists via N-Aminoethyl Cyclic Amines Prepared by Decarboxylative Ring-Opening Reactions” (Molecules, 2012).

Usually Ki stands for a measure of affinity in units of concentration, obtained from inhibition or displacement.

The target of this assay is T1, human IP receptor (PGI2 receptor) (Homo sapiens, UniProt P43119).
T1 construct: gene PTGIR
As to the kind of experiment: competitive binding assay with membrane fractions of CHO or COS-7 cells expressing the receptor; also cAMP increase in COS-7 cells expressing human IP.

Counter-ions that a name gives are not always drawn.

T1 sequence (P43119 1-383): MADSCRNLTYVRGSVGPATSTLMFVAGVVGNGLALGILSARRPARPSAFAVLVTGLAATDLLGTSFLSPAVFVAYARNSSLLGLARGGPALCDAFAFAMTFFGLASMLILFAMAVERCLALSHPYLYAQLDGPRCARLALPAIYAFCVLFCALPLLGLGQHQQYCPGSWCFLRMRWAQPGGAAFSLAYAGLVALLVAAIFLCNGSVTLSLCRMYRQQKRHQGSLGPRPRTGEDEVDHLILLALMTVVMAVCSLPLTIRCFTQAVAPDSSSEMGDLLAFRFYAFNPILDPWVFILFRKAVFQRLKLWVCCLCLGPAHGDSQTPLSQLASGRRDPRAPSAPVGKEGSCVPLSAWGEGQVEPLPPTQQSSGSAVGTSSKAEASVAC

Regarding `O=C(O)COC1CCN(CCN(C(=O)c2ccc3c(c2)OCO3)c2ccc(Cl)cc2)CC1` [compound 2, 2-((1-(2-(N-(4-Chlorophenyl)benzo[d][1,3]dioxole-5-carboxamido)ethyl)piperidin-4-yl)oxy)acetic acid phosphoric acid salt], the affinity, expressed as Ki, was 310 nM. This counts as sub-micromolar.
